From patent publication US5010059A, “Pharmaceutical products and lactosyl compounds” (Solco Basel AG, priority 1987, dated 1991)
“And” between values parts separate entries of the source, which are not always exact repeats. Equal entries are not always repeated. Where two headings read alike, the source gives them in different places.

What was measured:
GalN/endotoxin hepatitis [1] = experiment: GalN/endotoxin hepatitis, cytoprotective effect of the compounds; format: in vivo, albino mice of the NMRI strain; settings: 200 μg/kg i.p. 1 hour before GalN/endotoxin; serum 9 hours later; n.s. not significant, *p ≤ 0.05, **p ≤ 0.01
From the text: In order to gain a deeper insight into the pharmacological properties of the compounds of the formula I, they have been examined for any cytoprotective effects they may have. The cytoprotective effect can be shown, inter alia, by the method described by A. Wendel and G. Tiegs in Biochemical Pharmacology 35 (1986), 2115-2118. This is based on the impairment of liver function as a consequence of sensitization of the liver due to administration of D-galactosamine and simultaneous treatment with endotoxins.
D-galactosamine (abbreviated to GalN) causes in animals liver damage which is regarded as a model for human viral hepatitis. The mechanism is assumed to be an accumulation of toxic galactosamine derivatives in the liver, which results in a diminution in the biosynthesis of macromolecules such as ribonucleic acids, proteins, glycoproteins and glycogens. These changes in the metabolism may in turn result in cell damage or even death of cells in the liver. The extent of liver damage can be determined by the increase in certain liver enzymes (sorbitol dehydrogenase SDH, serum glutamic-oxalic transaminase SGOT, serum glutamic-pyruvic transaminase SGPT) in the blood and by histology of the liver.
The test is carried out as follows.
Male albino mice of the NMRI strain are pretreated intraperitoneally with 200 μg/kg test substance and, 1 hour thereafter, treated intraperitoneally with 700 mg/kg D-galactosamine and 33 μg/kg endotoxins. 9 hours later, blood is removed by cardiac puncture, and the enzymatic activity in the blood serum is determined according to H. U. Bergmeyer [Methods in Enzymatic Analysis, 3rd edition (1985), volume III]. In this experimental model, the […] (Kupffer cells) actually function as immobilized macrophages.
The content of the liver enzymes SDH, SGOT and SGPT in the serum is expressed in international units (IU) for the enzyme activity; 1 IU=1 μmol of substrate converted/minute in one liter.

cutaneous necrosis = experiment: skin flap test (action promoting healing); format: in vivo, Wistar rats; settings: for Area of surviving skin in mm^2 / Area of the necrotic skin in mm^2 / Area of the skin flap / Area of surviving skin in % / Area of the necrotic skin in %: 1.5 ml i.p. daily for 8 days; for Area of surviving skin in mm^2 / Area of the necrotic skin in mm^2 / Area of the skin flap: 5% concentration; for Area of surviving skin in % / Area of the necrotic skin in %: % of skin flap; for Action of the compound in %: increase in area of surviving skin as percentage compared with control
From the text: Various pharmacological tests can be used to test for any therapeutically beneficial effect on damaged cells and tissues. An action promoting healing can be estimated and measured, in particular, by using the so-called skin flap test; the test is based on the development of a cutaneous necrosis and the inhibition thereof as a consequence of the action of the test substance.
Male Wistar rats of body weight 220-240 g in groups of 8 animals for each value which is to be determined are anesthetized with Nembutal (50 mg/kg, i.p.). A 1×3 cm skin flap is cut out, using a scalpel, from the back, is thoroughly washed and is returned to the original site and is sutured. The test animals are given the compound which is to be tested, in 5% concentration in aqueous solution (containing 0.2% ethanol and 1% polyethylene glycol of molecular weight 20,000--or Carbowax ®20; in each case 1.5 ml intraperitoneal), each day for 8 days; the control animals receive only the aqueous medium. Each day drawings are made of the skin flaps on the scale 1:1, with the necrotic sites being colored black. The animals are sacrificed after 8 days, and the drawings are evaluated using a Biotran apparatus, and the total area of the necrotic sites is measured in mm^2. The action promoting healing is expressed as the increase in the area of surviving skin as a percentage compared with the control.

GalN/endotoxin hepatitis [2] = settings: *p ≤ 0.01, **p ≤ 0.001; indomethacin 9 mg/kg; diethylcarbamazine 78 mg/kg i.p. every 45 minutes between 0 and 6 hours; dexamethasone 200 μg/kg i.p.; cited from earlier work
acute toxicity testing = format: in vivo; parameters: Weight on May 10, 1988 / Weight on May 20, 1988: unit not given here
Protocol: Two groups each of ten mice were observed and weighed each day for 10 days. The animals in the control group each received intraperitoneal administration of 500 μl of a 5 mmol/l solution of Pluronic ® F 68 (manufactured by BASF Wyandotte, Erbsloh/FRG) in physiological saline, while those in the test group received 500 μl of a solution of 6 mg of the compound named above in 6 ml of Pluronic® F 68.

| SMILES | SDH (GalN/endotoxin hepatitis [1]) | SGOT (GalN/endotoxin hepatitis [1]) | SGPT (GalN/endotoxin hepatitis [1]) | Area of surviving skin in mm^2 (cutaneous necrosis) | Area of the necrotic skin in mm^2 (cutaneous necrosis) | Area of the skin flap (cutaneous necrosis) | Area of surviving skin in % (cutaneous necrosis) | Area of the necrotic skin in % (cutaneous necrosis) | Action of the compound in % (cutaneous necrosis) | SGOT (GalN/endotoxin hepatitis [2]) | SGPT (GalN/endotoxin hepatitis [2]) | special reactions immediately after the injection (acute toxicity testing; about 20 mg/kg i.p.) | toxic signs (acute toxicity testing; about 20 mg/kg i.p., during the experiment and days which followed) | weight gain versus control group (acute toxicity testing; about 20 mg/kg i.p., test versus control group) | mortality (acute toxicity testing; mouse, in vivo) | Weight on May 20, 1988 (acute toxicity testing; test group, individual animals, 10 days, about 20 mg/kg i.p.) | Weight difference (acute toxicity testing; test group, individual animals, May 10 to May 20, about 20 mg/kg i.p.) | Weight on May 10, 1988 (acute toxicity testing; test group, individual animals, before/at i.p. dosing (about 20 mg/kg)) |
| --- | --- | --- | --- | --- | --- | --- | --- | --- | --- | --- | --- | --- | --- | --- | --- | --- | --- | --- |
| CCCCCCCCCCCCC/C=C/[C@@H](O)[C@H](CO[C@@H]1O[C@H](CO)[C@@H](O)[C@H](O)[C@H]1O)NC(=O)CCCCCCCCCCCCCCC [Glu(Pal)-D-Sph] | 4720 ± 2320 IU/liter | 910 ± 425 IU/liter | 3950 ± 2260 IU/liter | 144.1 ± 9.1 mm^2 | 113.3 ± 10.6 mm^2 | 257.4 ± 6.2 mm^2 | 56.2% | 43.8% | +30.1% | – | – | – | – | – | – | – | – | – |
| CCCCCCCCCCCCC/C=C/[C@@H](O)[C@H](CO[C@@H]1O[C@H](CO)[C@@H](O[C@@H]2O[C@H](CO)[C@H](O)[C@H](O)[C@H]2O)[C@H](O)[C@H]1O)NC(=O)CCCCCCCCCCCCCCC [Lac(Pal)-D-Sph, (2S,3R,4E)-1-[4-0-(8-D-galactopyranosyl) -β-D-glucopyranosyloxy]-2-hexadecanoylamino-4-octadecen-3-ol] | 80 ± 30 IU/liter | 80 ± 20 IU/liter | 110 ± 70 IU/liter | 197.6 ± 12.6 mm^2 | 113.2 ± 13.0 mm^2 | 310.9 ± 6.9 mm^2 | 63.8% | 36.2% | +47.3% | – | – | – | – | – | – | – | – | – |
| CCN(CC)C(=O)N1CCN(C)CC1 [Diethylcarbamazine] | – | – | – | – | – | – | – | – | – | 270 ± 90 | 290 ± 180 | – | – | – | – | – | – | – |
| CCCCCCCCCCCCC/C=C/[C@H](O)[C@@H](CO[C@@H]1O[C@H](CO)[C@@H](O[C@@H]2O[C@H](CO)[C@H](O)[C@H](O)[C@H]2O)[C@H](O)[C@H]1O)NC(=O)CCCCCCCCCCCCCCC [Lac(Pal)-L-Sph, (2R,3S,4E)-1-[4-0-(8-D-galactopyranosyl) -β-D-gluco-pyranosyloxy]-2-hexadecanoylamino-4-octadecen-3-ol] | 80 IU/liter | 120 ± 80 IU/liter | 80 ± 20 IU/liter | 182.8 ± 11.3 mm^2 | 112.7 ± 13.3 mm^2 | 295.5 ± 6.4 mm^2 | 62.3% | 37.7% | +43.9% | – | – | nor were any special reactions immediately after the injection | no toxic signs | strictly comparable in respect of weight gain | No mortality | 35.7 and 33.0 and 35.0 and 34.9 and 34.4 and 39.9 and 28.8 and 34.0 and 30.5 and 31.9 | +6.6 g and +6.0 g and +7.3 g and +7.0 g and +7.7 g and +9.7 g and +4.3 g and +6.4 g and +3.9 g and +5.6 g | 29.1 and 27.0 and 27.7 and 27.9 and 26.7 and 30.2 and 24.5 and 27.6 and 26.6 and 26.3 |
| CCCCC/C=C\C/C=C\C/C=C\C/C=C\CCCC(=O)N[C@@H](CO[C@@H]1O[C@H](CO)[C@@H](O[C@@H]2O[C@H](CO)[C@H](O)[C@H](O)[C@H]2O)[C@H](O)[C@H]1O)[C@H](O)/C=C/CCCCCCCCCCCCC [Lac(Arach)-D-Sph] | 355 ± 425 IU/liter | 280 ± 260 IU/liter | 290 ± 210 IU/liter | 211.6 ± 33.3 mm^2 | 111.5 ± 25.8 mm^2 | 323.1 ± 10.4 mm^2 | 64.1% | 35.8% | +36.8% | – | – | – | – | – | – | – | – | – |
| COc1ccc2c(c1)c(CC(=O)O)c(C)n2C(=O)c1ccc(Cl)cc1 [Indomethacin] | – | – | – | – | – | – | – | – | – | 480 ± 475 | 730 ± 1,040 | – | – | – | – | – | – | – |
| CC/C=C\C/C=C\C/C=C\CCCCCCCC(=O)N[C@@H](CO[C@@H]1O[C@H](CO)[C@@H](O)[C@H](O)[C@H]1O)[C@H](O)/C=C/CCCCCCCCCCCCC [Glu(Linolen)-D-Sph] | 2280 ± 355 IU/liter | 940 ± 170 IU/liter | 3350 ± 630 IU/liter | 107.4 ± 27.3 mm^2 | 184.1 ± 28.9 mm^2 | 291.5 ± 5.5 mm^2 | 37.2% | 62.8% | +144.7% | – | – | – | – | – | – | – | – | – |
| CC/C=C\C/C=C\C/C=C\CCCCCCCC(=O)N[C@@H](CO[C@@H]1O[C@H](CO)[C@@H](O[C@@H]2O[C@H](CO)[C@H](O)[C@H](O)[C@H]2O)[C@H](O)[C@H]1O)[C@H](O)/C=C/CCCCCCCCCCCCC [Lac(Linolen)-D-Sph, (2S,3R,4E)-1-[4-0-(β-D-Galactopyranosyl)-β-D-glucopyranosyloxy-oxy]-2-[(9Z,12Z,15Z)-9,12,15-octadecatrienoylamino]-4-octadecen-3-ol] | 290 ± 250 IU/liter | 124 ± 55 IU/liter | 230 ± 76 IU/liter | 195.9 ± 35.5 mm^2 | 128.1 ± 34.2 mm^2 | 324.0 ± 10.0 mm^2 | 60.4% | 39.6% | +22.0% | – | – | – | – | – | – | – | – | – |
| CCCCCCCCCCCCCC=CC(O)C(COC1OC(CO)C(O)C(O)C1O)NC(=O)CCCCCCCCCCCCCCC [Gal(Pal)-D-Sph] | 2400 ± 2800 IU/liter | 1030 ± 1150 IU/liter | 2990 ± 3510 IU/liter | 191.8 ± 18.9 mm^2 | 81.4 ± 18.5 mm^2 | 273.3 ± 5.2 mm^2 | 70.2% | 29.8% | +31.2% | – | – | – | – | – | – | – | – | – |
| CCCCCCCCCCCCCC=CC(O)C(COC1OC(CO)C(O)C(O)C1O)NC(=O)CCCCCCCCCCCCCCC [Glu(Pal)-L-Sph] | 1690 ± 1680 IU/liter | 410 ± 360 IU/liter | 1470 ± 1460 IU/liter | 178.6 ± 16.8 mm^2 | 85.8 ± 14.7 mm^2 | 264.4 ± 2.6 mm^2 | 67.3% | 32.7% | +55.8% | – | – | – | – | – | – | – | – | – |
